The text below walks through data of ChEMBL document CHEMBL4354881, “Optimization of Potent ATAD2 and CECR2 Bromodomain Inhibitors with an Atypical Binding Mode” (J Med Chem, 2020).

For assay [1], the target named is Transcription initiation factor TFIID subunit 1-like (Homo sapiens, UniProt Q8IZX4). Briefly: Binding affinity to human partial length TAF1L bromodomain 2 (Q1523 to D1654 residues) expressed in bacterial expression system by BROMOscan assay.
Assay [2] addresses T1, Chromatin remodeling regulator CECR2 (Homo sapiens, UniProt Q9BXF3). Description: Inhibition of BSP-BODIPY binding to Nanoluc-tagged CECR2 (unknown origin) expressed in HEK293 cells measured after 4 to 6 hrs by NanoBRET assay. The class given is cell-based. Background: Bioluminescence resonance energy transfer reports proximity on the nanometre scale.
The target of assay [3] is T1, Chromatin remodeling regulator CECR2. Briefly: Binding affinity to human partial length CECR2 (P423 to D543 residues) expressed in bacterial expression system by BROMOscan assay.
Assay [4] deals with T2, ATPase family AAA domain-containing protein 2B (Homo sapiens, UniProt Q9ULI0).
T2 sequence (Q9ULI0 whole entry): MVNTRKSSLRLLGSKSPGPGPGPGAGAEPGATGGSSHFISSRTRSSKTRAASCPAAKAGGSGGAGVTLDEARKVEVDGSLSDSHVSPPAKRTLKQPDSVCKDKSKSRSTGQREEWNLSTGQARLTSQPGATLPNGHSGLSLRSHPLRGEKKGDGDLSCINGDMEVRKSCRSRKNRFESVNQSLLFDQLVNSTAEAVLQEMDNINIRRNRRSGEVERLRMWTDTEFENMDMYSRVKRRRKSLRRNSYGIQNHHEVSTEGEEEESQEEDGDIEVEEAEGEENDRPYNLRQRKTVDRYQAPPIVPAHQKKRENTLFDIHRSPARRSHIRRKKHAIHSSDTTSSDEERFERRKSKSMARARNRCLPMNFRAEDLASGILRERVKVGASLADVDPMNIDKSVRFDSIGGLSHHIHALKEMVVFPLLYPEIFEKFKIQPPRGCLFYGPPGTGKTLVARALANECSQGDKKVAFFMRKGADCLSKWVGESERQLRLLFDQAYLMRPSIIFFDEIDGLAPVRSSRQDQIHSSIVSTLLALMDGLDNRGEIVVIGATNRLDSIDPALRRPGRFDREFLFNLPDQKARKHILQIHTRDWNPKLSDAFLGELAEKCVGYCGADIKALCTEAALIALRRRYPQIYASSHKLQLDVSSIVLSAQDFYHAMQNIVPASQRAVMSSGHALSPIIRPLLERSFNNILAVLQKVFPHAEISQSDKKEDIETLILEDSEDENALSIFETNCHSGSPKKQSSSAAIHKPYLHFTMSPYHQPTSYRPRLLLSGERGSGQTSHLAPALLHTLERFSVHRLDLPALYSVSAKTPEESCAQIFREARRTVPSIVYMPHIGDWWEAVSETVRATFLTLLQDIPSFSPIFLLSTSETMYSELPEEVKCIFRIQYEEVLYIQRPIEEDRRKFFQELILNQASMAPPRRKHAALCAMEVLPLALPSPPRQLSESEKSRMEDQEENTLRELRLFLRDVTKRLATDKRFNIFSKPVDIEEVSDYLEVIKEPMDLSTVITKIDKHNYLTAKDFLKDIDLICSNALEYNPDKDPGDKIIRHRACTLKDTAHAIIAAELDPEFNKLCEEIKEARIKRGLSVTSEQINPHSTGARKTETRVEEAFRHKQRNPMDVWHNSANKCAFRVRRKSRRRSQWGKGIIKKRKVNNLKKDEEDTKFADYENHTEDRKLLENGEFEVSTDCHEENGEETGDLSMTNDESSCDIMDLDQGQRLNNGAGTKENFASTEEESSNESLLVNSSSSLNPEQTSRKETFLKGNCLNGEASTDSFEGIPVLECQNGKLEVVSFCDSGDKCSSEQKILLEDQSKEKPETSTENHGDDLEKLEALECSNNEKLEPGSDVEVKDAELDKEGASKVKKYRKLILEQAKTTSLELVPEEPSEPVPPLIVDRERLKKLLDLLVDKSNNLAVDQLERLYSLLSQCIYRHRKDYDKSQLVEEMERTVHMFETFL
Description: Binding affinity to human partial length ATAD2B (Q955 to R1082 residues) expressed in bacterial expression system by BROMOscan assay.

Each structure is given as a SMILES string.

T1 sequence (Q9BXF3 whole entry, the tested form may be a part): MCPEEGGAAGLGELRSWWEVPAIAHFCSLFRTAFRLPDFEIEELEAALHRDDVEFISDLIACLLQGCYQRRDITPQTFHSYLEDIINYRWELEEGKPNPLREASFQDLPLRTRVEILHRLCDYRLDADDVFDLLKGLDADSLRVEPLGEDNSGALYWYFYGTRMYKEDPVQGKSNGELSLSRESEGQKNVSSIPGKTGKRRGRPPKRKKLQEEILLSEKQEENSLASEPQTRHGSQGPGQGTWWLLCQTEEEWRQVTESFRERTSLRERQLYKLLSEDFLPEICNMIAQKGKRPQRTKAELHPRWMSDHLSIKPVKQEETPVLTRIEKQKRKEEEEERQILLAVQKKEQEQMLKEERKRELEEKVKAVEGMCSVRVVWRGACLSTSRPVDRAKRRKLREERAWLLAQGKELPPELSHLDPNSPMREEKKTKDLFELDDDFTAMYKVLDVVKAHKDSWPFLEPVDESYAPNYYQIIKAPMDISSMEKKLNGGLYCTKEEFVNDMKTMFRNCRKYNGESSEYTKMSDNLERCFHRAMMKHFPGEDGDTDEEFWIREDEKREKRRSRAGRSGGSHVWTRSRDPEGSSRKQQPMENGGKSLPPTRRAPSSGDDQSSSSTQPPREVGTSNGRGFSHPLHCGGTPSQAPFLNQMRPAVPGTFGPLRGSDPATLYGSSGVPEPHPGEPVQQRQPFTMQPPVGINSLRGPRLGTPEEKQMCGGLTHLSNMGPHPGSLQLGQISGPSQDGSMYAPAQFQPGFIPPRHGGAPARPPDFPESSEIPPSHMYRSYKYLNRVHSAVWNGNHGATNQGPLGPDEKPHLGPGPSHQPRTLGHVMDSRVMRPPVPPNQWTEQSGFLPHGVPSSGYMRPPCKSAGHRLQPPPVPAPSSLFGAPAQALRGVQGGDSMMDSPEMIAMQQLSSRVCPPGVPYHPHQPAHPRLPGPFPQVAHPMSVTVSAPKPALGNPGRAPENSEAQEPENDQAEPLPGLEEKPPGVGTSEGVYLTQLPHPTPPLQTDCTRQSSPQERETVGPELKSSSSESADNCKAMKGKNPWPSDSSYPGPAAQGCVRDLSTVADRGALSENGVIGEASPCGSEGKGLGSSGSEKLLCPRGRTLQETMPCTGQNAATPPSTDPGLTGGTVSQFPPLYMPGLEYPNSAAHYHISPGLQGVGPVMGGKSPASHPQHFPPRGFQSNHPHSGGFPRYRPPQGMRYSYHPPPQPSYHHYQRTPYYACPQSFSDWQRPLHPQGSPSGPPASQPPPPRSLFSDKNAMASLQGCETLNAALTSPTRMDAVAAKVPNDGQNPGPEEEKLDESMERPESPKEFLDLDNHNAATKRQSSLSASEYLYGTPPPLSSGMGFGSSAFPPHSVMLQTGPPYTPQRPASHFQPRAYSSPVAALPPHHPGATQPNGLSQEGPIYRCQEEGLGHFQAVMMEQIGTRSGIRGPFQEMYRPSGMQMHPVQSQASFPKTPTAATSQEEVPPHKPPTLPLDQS
Chain of Transcription initiation factor TFIID subunit 1-like (Q8IZX4 whole entry, the tested form may be a part): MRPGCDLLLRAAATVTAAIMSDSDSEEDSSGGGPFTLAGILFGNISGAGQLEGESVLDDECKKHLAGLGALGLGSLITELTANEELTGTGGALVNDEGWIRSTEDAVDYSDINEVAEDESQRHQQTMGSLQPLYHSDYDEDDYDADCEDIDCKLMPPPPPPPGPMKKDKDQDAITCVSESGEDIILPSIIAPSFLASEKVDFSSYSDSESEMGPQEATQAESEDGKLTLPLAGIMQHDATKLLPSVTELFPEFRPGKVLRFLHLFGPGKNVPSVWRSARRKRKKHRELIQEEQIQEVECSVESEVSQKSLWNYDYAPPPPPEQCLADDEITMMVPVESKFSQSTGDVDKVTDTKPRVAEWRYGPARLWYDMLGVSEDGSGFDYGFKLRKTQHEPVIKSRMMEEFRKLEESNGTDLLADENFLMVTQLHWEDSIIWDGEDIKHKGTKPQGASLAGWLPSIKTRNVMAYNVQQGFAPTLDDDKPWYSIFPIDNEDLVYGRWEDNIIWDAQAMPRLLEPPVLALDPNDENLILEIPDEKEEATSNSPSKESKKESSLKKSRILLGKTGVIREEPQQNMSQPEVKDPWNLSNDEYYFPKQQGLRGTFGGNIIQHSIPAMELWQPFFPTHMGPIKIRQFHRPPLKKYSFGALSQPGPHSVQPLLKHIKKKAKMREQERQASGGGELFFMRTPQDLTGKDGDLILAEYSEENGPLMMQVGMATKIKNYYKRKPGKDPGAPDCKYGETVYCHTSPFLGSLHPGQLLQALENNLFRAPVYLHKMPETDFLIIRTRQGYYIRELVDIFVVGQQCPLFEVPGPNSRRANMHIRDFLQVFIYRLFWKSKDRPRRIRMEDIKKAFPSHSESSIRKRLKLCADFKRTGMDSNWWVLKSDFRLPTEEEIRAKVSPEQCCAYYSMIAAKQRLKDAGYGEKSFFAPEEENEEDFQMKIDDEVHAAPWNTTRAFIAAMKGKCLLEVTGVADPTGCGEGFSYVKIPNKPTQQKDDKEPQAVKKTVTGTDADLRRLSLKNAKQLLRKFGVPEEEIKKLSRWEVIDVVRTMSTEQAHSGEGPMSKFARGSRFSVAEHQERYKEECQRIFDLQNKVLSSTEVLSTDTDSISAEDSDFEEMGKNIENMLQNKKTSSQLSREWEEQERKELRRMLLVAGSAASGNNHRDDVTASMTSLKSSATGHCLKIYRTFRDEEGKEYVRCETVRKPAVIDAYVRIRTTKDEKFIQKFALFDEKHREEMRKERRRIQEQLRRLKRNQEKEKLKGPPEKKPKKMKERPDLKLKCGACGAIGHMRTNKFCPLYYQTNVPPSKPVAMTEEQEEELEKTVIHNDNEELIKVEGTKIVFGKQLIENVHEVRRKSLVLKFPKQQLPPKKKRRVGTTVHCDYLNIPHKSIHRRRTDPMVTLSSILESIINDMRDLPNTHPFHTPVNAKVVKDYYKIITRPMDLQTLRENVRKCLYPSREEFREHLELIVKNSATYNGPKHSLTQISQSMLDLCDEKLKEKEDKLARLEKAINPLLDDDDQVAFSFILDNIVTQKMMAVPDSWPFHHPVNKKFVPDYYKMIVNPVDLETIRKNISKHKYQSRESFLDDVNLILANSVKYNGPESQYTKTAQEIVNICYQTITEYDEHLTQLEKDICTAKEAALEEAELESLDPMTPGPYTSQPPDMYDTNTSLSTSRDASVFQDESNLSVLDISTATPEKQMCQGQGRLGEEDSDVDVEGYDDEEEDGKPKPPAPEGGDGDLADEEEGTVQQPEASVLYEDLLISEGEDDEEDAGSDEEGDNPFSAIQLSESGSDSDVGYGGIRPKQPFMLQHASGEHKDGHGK

Consider `C[C@H]1CCN(S(=O)(=O)c2cc(NC(=O)CN3C(=O)N[C@@](C)(C4CC4)C3=O)ccc2Br)C1`, for which the Kd (as a rule, the free concentration of one partner at which half of the binding sites on the other are occupied at equilibrium, for simple one-to-one binding) in assay [1] is 25.1 nM; in assay [3] it was 25.1 nM; in assay [4] it was 20 nM. Further, the IC50 (in general, the concentration at which inhibition is half-maximal) in assay [2] is 251 nM.
